Assay results reported in the Deep4Chem optical property database.

Test: solvent given as SMILES

For `CC1(C)OB(c2cc3ccc4cccc5ccc(c2)c3c45)OC1(C)C`, the fluorescence lifetime (in Cc1ccccc1) was 82 ns.

Work on `Cc1cc(=O)c2ccc(N)cc2o1` yielded a fluorescence lifetime (in C1CCOC1) of 3.22 ns, a fluorescence lifetime (in C1COCCO1) of 0.48 ns and a fluorescence lifetime (in CC#N) of 0.59 ns. The fluorescence lifetime (in CC(C)O) was 4.56 ns, the fluorescence lifetime (in CCCCO) was 4.01 ns and the fluorescence lifetime (in CCCO) was 4.68 ns. It also gave a fluorescence lifetime (in CCOC(C)=O) of 0.94 ns, a fluorescence lifetime (in CN(C)C=O) of 3.37 ns and a fluorescence lifetime (in CO) of 4.45 ns. It also gave a fluorescence lifetime (in CS(C)=O) of 0.8 ns, a fluorescence lifetime (in ClC(Cl)Cl) of 3.67 ns and a fluorescence lifetime (in O) of 5.52 ns.

Work on `COc1ccc(C2=C3C(C)=CC(C=Cc4ccc(C(=O)OC5C[C@H]6CCC5(C)C6(C)C)cc4)=[N+]3[B-](F)(F)n3c(C)cc(C)c32)cc1` (stereo partly drawn) yielded a fluorescence lifetime (in Cc1ccccc1) of 3.82 ns.

For `CCOC(=O)CCCCCn1c2ccc(Cl)cc2c(=O)c2cc3c(cc21)c(=O)c1cc(Cl)ccc1n3CCCCCC(=O)OCC`, the fluorescence lifetime (in CO) was 22.1 ns.

With `C(=C\c1ccc(-c2ccncc2)cc1)/c1ccc(-c2ccncc2)cc1` the fluorescence lifetime (in ClCCl) was 0.85 ns.

With `Cc1cc(C)cc(NC(=O)c2sc(Br)nc2C)c1` the fluorescence lifetime (in CO) was 0.33 ns and the fluorescence lifetime (in ClC(Cl)Cl) was 0.18 ns.

Compound `CCC1(CC)c2cc(B(c3c(C)cc(C)cc3C)c3c(C)cc(C)cc3C)ccc2-c2ccc(N(c3ccccc3)c3ccccc3)cc21` has a fluorescence lifetime (in C1CCOC1) of 2.5 ns, a fluorescence lifetime (in CC#N) of 3.5 ns and a fluorescence lifetime (in CC(C)=O) of 2.9 ns. The fluorescence lifetime (in CCCCCC) was 1.6 ns, the fluorescence lifetime (in CN(C)C=O) was 3.5 ns and the fluorescence lifetime (in Cc1ccccc1) was 1.8 ns. The fluorescence lifetime (in ClC(Cl)Cl) was 2.2 ns.

For `CC(C)(C)c1ccc2c(c1)-c1c3c(c4c5c1-c1cc(C(C)(C)C)ccc1OB5Oc1ccc(C(C)(C)C)cc1-4)-c1cc(C(C)(C)C)ccc1OB3O2`, the fluorescence lifetime (in ClCCl) was 3.96 ns.

`COc1c2ccccc2c(-c2ccccc2)c2ccccc12` gave a fluorescence lifetime (in CC1CCCCC1) of 2.48 ns, a fluorescence lifetime (in CC#N) of 1.38 ns and a fluorescence lifetime (in CC(C)CC(C)(C)C) of 2.38 ns. For the same compound, the fluorescence lifetime (in CC(C)O) was 2.94 ns, the fluorescence lifetime (in CCCCCC) was 1.52 ns and the fluorescence lifetime (in CCCCO) was 3.7 ns. It also gave a fluorescence lifetime (in CCO) of 2.9 ns, a fluorescence lifetime (in CO) of 2.04 ns and a fluorescence lifetime (in OCC(O)CO) of 7.53 ns.

With `CC1=CC(C)=[N+]2C1=Cc1c(C)cc(C)n1[B-]2(F)F` the fluorescence lifetime (in CCCCCC) was 5.85 ns, the fluorescence lifetime (in CO) was 5.95 ns and the fluorescence lifetime (in ClCCl) was 5.73 ns.

`O=[N+]([O-])c1ccc(-c2nc3c(c4c2-c2ccccc2CC4)-c2ccccc2CC3)cc1` showed a fluorescence lifetime (in CC#N) of 2.05 ns, a fluorescence lifetime (in CS(C)=O) of 1.09 ns and a fluorescence lifetime (in ClCCl) of 1.13 ns.

`O=C([O-])c1ccc(C2=c3cc4c5c(c3Oc3c2cc2c6c3CCCN6CCC2)CCC[N+]=5CCC4)c(C(=O)[O-])c1` showed a fluorescence lifetime (in CCO) of 4.87 ns and a fluorescence lifetime (in O) of 4.36 ns.

Compound `Nc1ccc2c(c1)C(=O)c1ccc(N)cc1C2=O` has a fluorescence lifetime (in CC#N) of 1.85 ns, a fluorescence lifetime (in CC(C)O) of 0.6 ns and a fluorescence lifetime (in CCO) of 0.47 ns. For the same compound, the fluorescence lifetime (in CCOC(C)=O) was 2.01 ns and the fluorescence lifetime (in CO) was 0.34 ns.

Compound `O=C(O)c1ccc2ccc3cccc4ccc1c2c34` has a fluorescence lifetime (in C1CCOC1) of 10.6 ns, a fluorescence lifetime (in CC#N) of 9 ns and a fluorescence lifetime (in CCCCCC) of 8.68 ns. The fluorescence lifetime (in CCO) was 7.78 ns, the fluorescence lifetime (in CN(C)C=O) was 8.43 ns and the fluorescence lifetime (in CO) was 15.5 ns. The fluorescence lifetime (in Cc1ccccc1) was 7.14 ns and the fluorescence lifetime (in ClCCl) was 5.12 ns.

In the case of `c1ccc(-c2cc(-c3nnc(-c4ccc(N5c6ccccc6Oc6ccccc65)cc4)o3)c(-c3ccccc3)c(-c3ccccc3)c2-c2ccccc2)cc1`, the fluorescence lifetime (in c1ccc(-n2c(-c3c(-n4c5ccccc5c5ccccc54)cccc3-n3c4ccccc4c4ccccc43)nc3ccccc32)cc1) is reported as 4.1 ns.

In the case of `CCCCn1c(=O)c2cc3ccc4cccc5ccc(c2c1=O)c3c45`, the fluorescence lifetime (in ClC(Cl)Cl) is reported as 5.48 ns.
